# Assay results as given in patent US10294229B2, “Heteroaryl substituted aminopyridine compounds” (BRISTOL-MYERS SQUIBB COMPANY, priority 2015, dated 2019).
# Legend:
# [1] = Caco-2 Permeability Assay; assay type: in vitro ADME; details: human, Caco-2, test compound 3 μM
# In short: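 Bidirectional permeability measured over 2 h at 37° C, compound dosed at 3 μM in the donor compartment (apical for absorptive, basolateral for secretive) with plain buffer as receiver.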
# [2] = test system: Human whole blood stimulated with a TLR2 agonist (lipoteichoic acid), IL-6 levels; assay: IRAK4 Whole Blood Assay; assay type: cell-based; details: Homo sapiens, lipoteichoic acid 10 μg/mL
# In short: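 IL-6 was quantified by cytometric bead assay in supernatants of human blood (ACD-A) stimulated for 5 h with lipoteichoic acid at 10 μg/mL final. Compound exposure preceded stimulation for 60 min at 37 °C, 5% CO2.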
# IRAK4 = IRAK4 (Homo sapiens (Human), UniProt Q9NWZ3); assay: IRAK4 Inhibition Assay; assay type: biochemical; details: ATP 500 μM; IRAK4 0.6 nM
# Chain of IRAK4 (Q9NWZ3 whole entry, species assumed): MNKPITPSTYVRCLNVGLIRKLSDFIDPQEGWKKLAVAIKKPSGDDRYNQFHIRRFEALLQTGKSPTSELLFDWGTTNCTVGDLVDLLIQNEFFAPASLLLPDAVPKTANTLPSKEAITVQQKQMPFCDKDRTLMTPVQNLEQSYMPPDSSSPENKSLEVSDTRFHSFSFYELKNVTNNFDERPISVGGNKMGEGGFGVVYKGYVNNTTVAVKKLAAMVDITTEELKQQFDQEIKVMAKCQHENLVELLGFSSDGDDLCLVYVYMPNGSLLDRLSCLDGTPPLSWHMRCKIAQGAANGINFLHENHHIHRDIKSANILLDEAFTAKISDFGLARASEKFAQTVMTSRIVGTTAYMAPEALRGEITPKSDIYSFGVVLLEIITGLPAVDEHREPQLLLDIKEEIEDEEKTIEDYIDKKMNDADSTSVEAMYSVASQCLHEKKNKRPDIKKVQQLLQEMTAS
# In short: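 Readout: electrophoretic (LabChip) separation of fluorescent peptide substrate from phosphorylated product after EDTA quench. Reactions ran 60 min at room temperature with 0.6 nM IRAK4, 1.5 μM peptide and 500 μM ATP; inhibition referenced to no-enzyme (100%) and vehicle (0%) controls.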
Compound,"Papp at 2 h, 3 µM [1] [×10⁻⁶ cm/s]",EC50 [2] [µM],IC50 (IRAK4) [µM]
"COC(=O)N1CCC(c2cn(-c3cnc(-n4ncc5cc(C#N)cnc54)cc3NC(C)C)nn2)CC1 [Example 338, methyl 4-(1-(6-(5-cyano-1H-pyrazolo[3,4-b]pyridin-1-yl)-4-(isopropylamino)pyridin-3-yl)-1H-1,2,3-triazol-4-yl)piperidine-1-carboxylate]",17.9,0.38,0.006
"CC(C)(O)CCc1cn(-c2cnc(-n3ncc4cc(C#N)cnc43)cc2N[C@@H]2CCC[C@@H]2F)nn1 [Example 375, 1-(4-(((1R,2S)-2-fluorocyclopentyl)amino)-5-(4-(3-hydroxy-3-methylbutyl)-1H-1,2,3-triazol-1-yl)pyridin-2-yl)-1H-pyrazolo[3,4-b]pyridine-5-carbonitrile]",6.8,0.3,0.001
"CC(C)(O)CCc1cn(-c2cnc(-n3ncc4cc(C#N)cnc43)cc2N[C@H]2CC[C@@H](F)C2)nn1 [Example 372, 1-(4-(((1S,3R)-3-fluorocyclopentyl)amino)-5-(4-(3-hydroxy-3-methylbutyl)-1H-1,2,3-triazol-1-yl)pyridin-2-yl)-1H-pyrazolo[3,4-b]pyridine-5-carbonitrile]",3.6,0.33,0.004
"CC(C)Nc1cc(-n2ncc3cc(C#N)cnc32)ncc1-c1cc(C2COC(C)(C)CN2)no1 (stereo not drawn) [Example 423, 1-(5-(3-(6,6-dimethylmorpholin-3-yl)isoxazol-5-yl)-4-(isopropylamino)pyridin-2-yl)-1H-pyrazolo[3,4-b]pyridine-5-carbonitrile]",39.4,0.16,0.002
"CC(C)Nc1cc(-n2ncc3cc(C#N)cnc32)ncc1-c1cc([C@H]2CCNC2)no1 [Example 404, (S)-1-(4-(isopropylamino)-5-(3-(pyrrolidin-3-yl)isoxazol-5-yl)pyridin-2-yl)-1H-pyrazolo[3,4-b]pyridine-5-carbonitrile]",< 1.5,0.23,0.003
"CC(C)Nc1cc(-n2ncc3cc(C#N)c(N)nc32)ncc1-n1cc(CCC(C)(C)O)nn1 [Example 371, 6-amino-1-(5-(4-(3-hydroxy-3-methylbutyl)-1H-1,2,3-triazol-1-yl)-4-(isopropylamino)pyridin-2-yl)-1H-pyrazolo[3,4-b]pyridine-5-carbonitrile]",< 1.5,0.13,0.001
"CCCNc1cc(-n2ncc3cc(C#N)cnc32)ncc1-n1cc(CCC(C)(C)O)nn1 [Example 389, 1-(5-(4-(3-hydroxy-3-methylbutyl)-1H-1,2,3-triazol-1-yl)-4-(propylamino)pyridin-2-yl)-1H-pyrazolo[3,4-b]pyridine-5-carbonitrile]",30.2,0.31,0.014
"CC(C)Nc1cc(-n2ncc3cc(C#N)cnc32)ncc1-c1cc(C2CC(F)(F)CCN2)no1 (stereo not drawn) [Example 422, 1-(5-(3-(4,4-difluoropiperidin-2-yl)isoxazol-5-yl)-4-(isopropylamino)pyridin-2-yl)-1H-pyrazolo [3,4-b]pyridine-5-carbonitrile]",31.7,0.48,0.003
"CC(C)Nc1cc(-n2ccc3cncnc32)ncc1-c1cn([C@H]2CCNC[C@H]2O)nn1 [Example 6, (3R,4S)-4-(4-(4-(isopropylamino)-6-(7H-pyrrolo[2,3-d]pyrimidin-7-yl)pyridin-3-yl)-1H-1,2,3-triazol-1-yl)piperidin-3-ol]",1.7,1.45,0.005
"CC(C)(O)CCc1cn(-c2cnc(-n3ncc4cc(C#N)cnc43)cc2NC2CCC(F)C2)nn1 (stereo not drawn) [Example 364, 1-(4-((3-fluorocyclopentyl)amino)-5-(4-(3-hydroxy-3-methylbutyl)-1H-1,2,3-triazol-1-yl)pyridin-2-yl)-1H-pyrazolo[3,4-b]pyridine-5-carbonitrile]",4.5,0.25,0.003
